As usually defined, the inhibition is the drop in the measured response relative to a control, in per cent.

Structures can show the parent of a compound that is named as a salt.

Experiment [1] concerns the target T1, Human recombinant enteropeptidase (Homo sapiens, UniProt P98073).
T1 construct: purchased ITSI-Biosciences LLC #REN-260
Description: Human enteropeptidase inhibitory activity. The experiment is classed as biochemical. The conditions noted are these: 1 μM test compound; fluorescence intensity at 2 hours after start of reaction; read-out: Inhibition rate at 1 μM. The protocol:
Test Example 1: Human Enteropeptidase Inhibitory Activity
Human recombinant enteropeptidase (#REN-260, ITSI-Biosciences LLC) was diluted with an assay buffer (50 mM Tricine, pH 8.0, 0.01 (w/v) %, Tween 20, 10 mM CaCl2)) to prepare a 24 mU/mL enzyme solution. Subsequently, 5FAM-Abu-Gly-Asp-Asp-Asp-Lys-Ile-Val-Gly-Gly-Lys(CPQ2)-Lys-Lys-NH2 (CPC Scientific Inc.) was diluted with the assay buffer to prepare a 2.1 μM substrate solution. A test compound is dissolved in DMSO into a 10 mM solution, and the solution was diluted with the assay buffer to give a compound solution. To a 384-well black plate (#784076, Greiner Bio-One), 5 μL of the compound solution and 5 μL of the substrate solution were added and mixed, and 5 μL of the enzyme solution was then added to the mixture, followed by mixing to start the reaction. The fluorescence intensity was measured with a fluorescence plate reader EnVision (The Perkin-Elmer Corp.) at an excitation wavelength of 485 nm and a fluorescence wavelength of 535 nm. The same reaction as above was performed without the addition of the test compound (test compound non-addition group). Furthermore, the same reaction as above was performed without the addition of the test compound and the enzyme (control group). The inhibition rate was calculated using the fluorescence intensity at 2 hours after the start of the reaction by the following expression:
Inhibition rate (%)=(1−((fluorescence intensity of test compound addition group)−(fluorescence intensity of control group))/((fluorescence intensity of test compound non-addition group)−(fluorescence intensity of control group)))×100

The subject of experiment [2] is Diet-induced obesity (DIO) mice. Description: Anti-obesity effect test using DIO mouse. The experiment is classed as in vivo. The note with it: for Body weight (g) At start of administration: average at start of administration; for Body weight (g) After 7-day administration: average; for Fecal protein concentration-increasing rate (%): feces of eighth day, vehicle = 100. As for the experimental part:
Test Example 3: Anti-Obesity Effect Test Using DIO Mouse
(§1) Diet-induced obesity (DIO) mice (D12451 diet, male, 26-week old) were orally administered with a 0.5% methyl cellulose suspension containing a test compound (30 mg/kg) (compound administration group, five mice per group) or a 0.5% methyl cellulose suspension (compound non-administration group (vehicle), five mice per group) once a day for seven days, and whole feces were collected on the eighth day of administration. Dried feces were dissolved in 0.5 N NaOH, followed by centrifugation at 12,000 rpm. The protein concentration in the supernatant was then quantitatively measured (Lowry method), and the amount of protein contained in 1 g of feces was calculated as the fecal protein concentration (mg/g feces). The fecal protein concentration-increasing rate was calculated by the following expression.
Fecal protein concentration-increasing rate (%)=Fecal protein concentration of compound administration group/Fecal protein concentration of vehicle group X 100
The fecal protein concentration-increasing rate and the averages of the body weights at the start of administration and after administration for seven days are shown in Table 6.
Also, DIO mice (D12451 diet, male, 59-week old) were orally administered with a 0.5% methyl cellulose suspension containing a test compound (20 mg/kg) (compound administration group, five mice per group) or a 0.5% methyl cellulose suspension (compound non-administration group (vehicle), five mice per group) once a day for seven days, and whole feces were collected on the eighth day of administration. The fecal protein concentration (mg/g feces) was calculated by the method described above. The fecal protein concentration-increasing rate and the averages of the body weights at the start of administration and after administration for seven days are shown in Table 7.

For a further experiment, the system named is High fat diet-fed mice. The experiment in a line: Fecal protein concentration-increasing test using high fat diet-fed mouse. The conditions noted are these: Mus musculus, po, 24 h, 30 mg/kg oral, feces of first day of administration, vehicle group = 100, read-out: Fecal protein concentration-increasing rate. The experiment is classed as in vivo.
Excerpt: Test Example 2: Fecal Protein Concentration-Increasing Test Using High Fat Diet-Fed Mouse
as §1, with “High fat diet-fed” for “Diet-induced obesity (DIO)”, “10- to 50-week” for “26-week”, “compound” for “compound (30 mg/kg)”, “(vehicle group),” for “(vehicle),”, “group),” for “group) once a day for seven days,”, “first” for “eighth”
Fecal protein concentration-increasing rate (%)=Fecal protein concentration of compound administration group/Fecal protein concentration of vehicle group×100

Where [3] appears, read: DIO mice 59-week old, 20 mg/kg oral once a day for seven days.
Where [4] appears, read: DIO mice 26-week old, 30 mg/kg group.
Where [5] appears, read: DIO mice 26-week old, 30 mg/kg oral once a day for seven days.

T1 sequence (P98073 whole entry): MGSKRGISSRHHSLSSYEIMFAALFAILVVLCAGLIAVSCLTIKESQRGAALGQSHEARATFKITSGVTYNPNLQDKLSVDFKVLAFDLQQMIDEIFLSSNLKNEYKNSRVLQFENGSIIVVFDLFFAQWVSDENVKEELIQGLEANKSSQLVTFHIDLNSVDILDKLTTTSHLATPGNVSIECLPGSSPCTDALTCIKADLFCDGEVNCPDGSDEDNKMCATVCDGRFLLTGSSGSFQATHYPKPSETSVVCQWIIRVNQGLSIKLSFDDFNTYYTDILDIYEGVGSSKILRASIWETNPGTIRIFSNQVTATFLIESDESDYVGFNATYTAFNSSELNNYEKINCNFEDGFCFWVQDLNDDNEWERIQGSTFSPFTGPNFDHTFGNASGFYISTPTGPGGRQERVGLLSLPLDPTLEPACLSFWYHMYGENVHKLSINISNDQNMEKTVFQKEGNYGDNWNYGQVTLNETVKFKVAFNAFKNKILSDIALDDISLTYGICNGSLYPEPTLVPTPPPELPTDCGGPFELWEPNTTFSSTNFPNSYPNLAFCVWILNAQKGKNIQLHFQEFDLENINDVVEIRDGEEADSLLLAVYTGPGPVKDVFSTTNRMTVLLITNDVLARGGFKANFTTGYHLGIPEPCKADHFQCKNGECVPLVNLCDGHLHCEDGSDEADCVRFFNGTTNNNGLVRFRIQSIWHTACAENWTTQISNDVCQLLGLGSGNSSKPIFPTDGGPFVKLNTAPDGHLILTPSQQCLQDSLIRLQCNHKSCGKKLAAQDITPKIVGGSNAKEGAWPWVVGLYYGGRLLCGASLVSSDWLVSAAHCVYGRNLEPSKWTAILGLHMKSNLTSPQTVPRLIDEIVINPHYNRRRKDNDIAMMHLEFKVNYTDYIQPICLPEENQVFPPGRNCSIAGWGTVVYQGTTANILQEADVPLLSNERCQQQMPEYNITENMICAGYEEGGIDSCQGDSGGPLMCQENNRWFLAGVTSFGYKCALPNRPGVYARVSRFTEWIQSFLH

Consider `N=C(N)Nc1ccc(C(=O)Oc2ccc(C(=O)N[C@H](CC(=O)O)C(=O)O)c(OCCOCCOc3cc(OC(=O)c4ccc(NC(=N)N)cc4)ccc3C(=O)N[C@H](CC(=O)O)C(=O)O)c2)cc1` [Example 21, (2R)-2-[[2-[2-[2-[2-[[(1R)-1,2-Dicarboxyethyl]carbamoyl]-5-(4-guanidinobenzoyl)oxyphenoxy]ethoxy]ethoxy]-4-(4-guanidinobenzoyl)oxybenzoyl]amino]butanedioic acid dihydrochloride], for which the inhibition at 1 µM in experiment [1] was found to be 100%. Further, the “Body weight (g) At start of administration” value in experiment [2] (DIO mice 59-week old, 20 mg/kg group) is reported as 56.7 g. Besides, in experiment [2] (setting [3]), the “Body weight (g) After 7-day administration” value is given as 53.6 g and the “Fecal protein concentration-increasing rate (%)” value is 248%. In the experiment on High fat diet-fed mice, the response vs control in vivo at 30 mg/kg came out at 203%.
Consider `N=C(N)Nc1ccc(C(=O)Oc2ccc(CCC(=O)N[C@@H](CC(=O)O)C(=O)O)c(OCCOCCOCCOc3cc(OC(=O)c4ccc(NC(=N)N)cc4)ccc3CCC(=O)N[C@@H](CC(=O)O)C(=O)O)c2)cc1` [Example 12, (2S)-2-[3-[2-[2-[2-[2-[2-[3-[[(1S)-1,2-Dicarboxyethyl]amino]-3-oxopropyl]-5-(4-guanidinobenzoyl)oxyphenoxy]ethoxy]ethoxy]ethoxy]-4-(4-guanidinobenzoyl)oxyphenyl]propanoylamino]butanedioic acid dihydrochloride], for which, in experiment [1], the inhibition at 1 µM stood at 100%. Moreover, the “Body weight (g) At start of administration” value in experiment [2] (setting [4]) was found to be 45.4 g. Moreover, in experiment [2] (setting [5]), the “Body weight (g) After 7-day administration” value came to 44.7 g and the “Fecal protein concentration-increasing rate (%)” value is recorded as 280%. In addition, the response vs control in vivo at 30 mg/kg in the experiment on High fat diet-fed mice was 197%.
In the same order, the values of `N=C(N)Nc1ccc(C(=O)Oc2cc(OCCOc3cc(OC(=O)c4ccc(NC(=N)N)cc4)cc(C(=O)N[C@H](CC(=O)O)C(=O)O)c3)cc(C(=O)N[C@H](CC(=O)O)C(=O)O)c2)cc1` [Example 16, (2R)-2-[[3-[2-[3-[[(1R)-1,2-Dicarboxyethyl]carbamoyl]-5-(4-Guanidinobenzoyl)oxyphenoxy]ethoxy]-5-(4-guanidinobenzoyl)oxybenzoyl]amino]butanedioic acid dihydrochloride] are 100%, 45.7 g, 44.7 g, 271% and 245%.
In the case of `N=C(N)Nc1ccc(C(=O)Oc2cc(OCCOCCOCCOc3cc(OC(=O)c4ccc(NC(=N)N)cc4)cc(C(=O)N[C@H](CCCCN)C(=O)O)c3)cc(C(=O)N[C@H](CCCCN)C(=O)O)c2)cc1` [Example 11, (2R)-6-Amino-2-[[3-[2-[2-[2-[3-[[(1R)-5-amino-1-carboxypentyl]carbamoyl]-5-(4-guanidinobenzoyl)oxyphenoxy]ethoxy]ethoxy]ethoxy]-5-(4-guanidinobenzoyl)oxybenzoyl]amino]hexanoic acid], the inhibition at 1 µM in experiment [1] was 60%. Besides, the response vs control in vivo at 30 mg/kg in the experiment on High fat diet-fed mice was found to be 171%.
In the same order, the values of `N=C(N)Nc1ccc(C(=O)Oc2cc(OCCOCCOCCOc3cc(OC(=O)c4ccc(NC(=N)N)cc4)cc(C(=O)N[C@H](CC(=O)O)C(=O)O)c3)cc(C(=O)N[C@H](CC(=O)O)C(=O)O)c2)cc1` [Example 6, (2R)-2-[[3-[2-[2-[2-[3-[[(1R)-1,2-Dicarboxyethyl]carbamoyl]-5-(4-guanidinobenzoyl)oxyphenoxy]ethoxy]ethoxy]ethoxy]-5-(4-guanidinobenzoyl)oxybenzoyl]amino]butanedioic acid ditrifluoroacetate] are 100% and 203%.
For `N=C(N)Nc1ccc(C(=O)Oc2ccc(CCC(=O)N[C@H](CC(=O)O)C(=O)O)c(OCCOCCOc3cc(OC(=O)c4ccc(NC(=N)N)cc4)ccc3CCC(=O)N[C@H](CC(=O)O)C(=O)O)c2)cc1` [Example 13, (2R)-2-[3-[2-[2-[2-[2-[3-[[(1R)-1,2-Dicarboxyethyl]amino]-3-oxopropyl]-5-(4-guanidinobenzoyl)oxyphenoxy]ethoxy]ethoxy]-4-(4-guanidinobenzoyl)oxyphenyl]propanoylamino]butanedioic acid], in that order: 100% and 150%.
For `N=C(N)Nc1ccc(C(=O)Oc2cc(OCCOCCOc3cc(OC(=O)c4ccc(NC(=N)N)cc4F)cc(C(=O)N[C@H](CC(=O)O)C(=O)O)c3)cc(C(=O)N[C@H](CC(=O)O)C(=O)O)c2)c(F)c1` [Example 18, (2R)-2-[[3-[2-[2-[3-[[(1R)-1,2-Dicarboxyethyl]carbamoyl]-5-(2-fluoro-4-guanidinobenzoyl)oxyphenoxy]ethoxy]ethoxy]-5-(2-fluoro-4-guanidinobenzoyl)oxybenzoyl]amino]butanedioic acid], in that order: 100% and 142%.
In the case of `N=C(N)Nc1ccc(C(=O)Oc2cc(OCCOc3cc(OC(=O)c4ccc(NC(=N)N)cc4)cc(C(=O)N[C@@H](CC(=O)O)C(=O)O)c3)cc(C(=O)N[C@@H](CC(=O)O)C(=O)O)c2)cc1` [Example 9, (2S)-2-[[3-[2-[3-[[(1S)-1,2-Dicarboxyethyl]carbamoyl]-5-(4-guanidinobenzoyl)oxyphenoxy]ethoxy]-5-(4-guanidinobenzoyl)oxybenzoyl]amino]butanedioic acid], the inhibition at 1 µM in experiment [1] worked out at 100%. For the same compound, the response vs control in vivo at 30 mg/kg in the experiment with High fat diet-fed mice was 195%.
For `N=C(N)Nc1ccc(C(=O)Oc2cc(OCCOCCOCCOc3cc(OC(=O)c4ccc(NC(=N)N)cc4)cc(C(=O)N[C@@H](CC(=O)O)C(=O)O)c3)cc(C(=O)N[C@@H](CC(=O)O)C(=O)O)c2)cc1` [Example 1, (2S)-2-[[3-[2-[2-[2-[3-[[(1S)-1,2-Dicarboxyethyl]carbamoyl]-5-(4-guanidinobenzoyl)oxyphenoxy]ethoxy]ethoxy]ethoxy]-5-(4-guanidinobenzoyl)oxybenzoyl]amino]butanedioic acid ditrifluoroacetate], in that order: 98% and 159%.
In the same order, the values of `N=C(N)Nc1ccc(C(=O)Oc2cc(OCCOCCOCCOCCOCCOc3cc(OC(=O)c4ccc(NC(=N)N)cc4)cc(C(=O)N[C@@H](CC(=O)O)C(=O)O)c3)cc(C(=O)N[C@@H](CC(=O)O)C(=O)O)c2)cc1` [Example 2, (2S)-2-[[3-[2-[2-[2-[2-[2-[3-[[(1S)-1,2-Dicarboxyethyl]carbamoyl]-5-(4-guanidinobenzoyl)oxyphenoxy]ethoxy]ethoxy]ethoxy]ethoxy]ethoxy]-5-(4-guanidinobenzoyl)oxybenzoyl]amino]butanedioic acid] are 98% and 142%.

Values taken from patent US20210403420A1, “BENZOATE COMPOUND” (SCOHIA PHARMA, INC., priority 2018, published 2021).
